{"source": "patent US20260091078A1", "about": "“OLIGOPEPTIDE THAT INHIBITS ANGIOGENESIS AND VASCULAR FUNCTION” (UNIVERSIDAD NACIONAL AUTONOMA DE MEXICO, priority 2019, published 2026)", "key": {"[1]": {"tested_on": "VEGF-induced retinal vasopermeability", "assay": "Vasopermeability in vivo: VEGF-induced retinal albumin extravasation (Evans blue method)", "conditions": "Wistar rats, intravitreal, 20 μM with 300 ng VEGF, 24 hours", "protocol": "For evaluating if the oligopeptide THGRGFI conserves the inhibitory properties of vasoinhibin on VEGF-induced vasopermeability in vivo, the effect of the intravitreal injection of VEGF alone or in combination with the oligopeptide or vasoinhibin in rats was determined.\nWistar rats were intravitreally injected with saline (control) or with 300 ng of VEGF in each case alone or in combination with 20 μM of the oligopeptide of the invention or with 20 μM of vasoinhibin. After 24 hours, the extravasation of albumin into the retina was evaluated using the Evans blue method. Briefly, 45 mg kg^−1 of total weight of the Evans blue dye was injected intravenously to anesthetized rats and was allowed to circulate for 2 hours. Then, the animals were perfused with ˜80 ml of PBS at a flow of ˜40 ml min^−1. The retinas were dissected, dried and incubated with 200 μl of formamide (Mallinckrodt Baker, Phillipsburg, NJ) at 72° C. and after 18 hours the labeled albumin was determined in the retinal extracts."}, "[2]": {"tested_on": "immortalized bovine umbilical-vein endothelial cells (BUVEC E6E7)", "assay": "Proliferation of BUVEC E6E7 endothelial cells stimulated with VEGF (EdU click assay)", "type": "cell-based", "conditions": "BUVEC E6E7, 50 ng ml^-1 VEGF, 24 hours, 0.001 to 100 nM; read-out: effective dose (EC50) for inhibition of proliferation", "protocol": "On a 96-well plate treated for cell culture, BUVEC E6E7 and HUVEC cells were seeded at a density of ˜14,000 and ˜11,000 cells cm^−2, respectively. BUVEC E6E7 cells were maintained in F12K culture media with 10% (v/v) fetal bovine serum (FBS) and the HUVEC in F12K media supplemented with 20% of FBS, 100 μg ml^−1 heparin and 25 μg ml^−1 of endothelial cell growth supplement (ECGS). After 24 hours, the cells were starved with FBS-reduced media (0.1% of FBS for BUVEC E6E7 and 0.5% for HUVEC) for 16 hours to synchronize cells in phase GO of the reproductive cycle. After this time, FBS and heparin were replenished only to HUVEC. The cells were then treated with vasoinhibin or the oligopeptide THGRGFI in concentrations ranging from 0.001 to 100 nM for 24 hours in the presence of 10 μM of the thymidine analog 5-Ethynyl-2′-deoxyuridine (EdU) and 50 ng ml^−1 VEGF for the BUVEC E6E7 or the combination of 25 ng ml^−1 VEGF and 20 ng ml^−1 bFGF for HUVEC. At the end of the experiment, cells were fixed with 4% paraformaldehyde, permeabilized with 0.5% Triton X-100 in TBS1x, and stained to detect the newly synthetized DNA by the incorporation of EdU using the “click” assay (which involves a copper catalyzed reaction to covalently bind fluorescent azide to the EDU incorporated to DNA). Total DNA was counterstained with Hoechst 33342 and the “click”-stained nuclei were quantified and plotted relative to the total number of Hoechst 33342-stained nuclei.\nFor the assay, BUVEC E6E7 cells were seeded at a density of ˜14′000 cells cm^−2 in a 96 well plate with F12K with 10% (v/v) FBS. After 24 hours, cells were starved with 0.1% of FBS for GO synchronization for ˜16 hours. Next, the cells were treated with the different oligopeptides in presence of 10 μM of the thymidine analog EdU and 50 ng ml^−1 of VEGF. Finally, the cells were fixed, permeabilized, and stained for the newly synthetized DNA by the EdU incorporation through the ‘click’ assay. The total DNA was stained with Hoechst 33342 and the percentage of ‘click’-stained nuclei over the total nuclei was a measure of proliferation."}, "[3]": {"tested_on": "immortalized endothelial cells from the bovine umbilical vein (BUVEC E6E7)", "assay": "Transwell Matrigel invasion of BUVEC E6E7 stimulated with VEGF", "type": "cell-based", "conditions": "BUVEC E6E7, 100 nM, VEGF 50 ng mL^-1, 24 hours", "protocol": "Endothelial cells were seeded over 100 μl Matrigel™ matrix (380 ng μl^−1) on a permeable ‘transwell’ support in a transwell chamber having an area of 0.33 cm^2 and 8 μm of pore-diameter at a density of 30,000 and 14,000 cells cm^−2 for BUVEC E6E7 and HUVEC cells, respectively. In the upper (luminal) compartment the cells were maintained with starving media F12K having 0.1 or 0.5% FBS for BUVEC E6E7 and HUVEC, respectively. In addition, HUVEC cells were maintained with 100 μg ml^−1 heparin. […] After 24 hours the media from both compartments and the luminal cells were removed. The abluminal cells were fixed with 100% MeOH for 10 minutes, permeabilized with TBS1x-0.5% Triton X-100, and stained with Hoechst 33342. The total number of cells in the abluminal compartment indicates the invasive activity of endothelial cells.\nThe inhibitory effect of 100 nM of the oligopeptide THGRGFI on the invasion of immortalized endothelial cells from the bovine umbilical vein (BUVEC E6E7) (FIG. 3A) or primary cells from the human umbilical vein (HUVEC) (FIG. 3B) stimulated in each case with VEGF (50 ng mL^−1) was compared with the inhibitory effect of 100 nM of the 123 amino acid vasoinhibin (***P<0.001)."}, "[4]": {"tested_on": "intracellular adhesion molecule 1 (ICAM1)", "assay": "Expression of vasoinhibin target gene ICAM1 mRNA in BUVEC E6E7 (qPCR)", "type": "cell-based, bovine", "conditions": "BUVEC E6E7, 100 nM, 4 hours", "protocol": "Vasoinhibin induces the expression of a variety of genes via the activation of NF-KB to promote angiostatic and inflammatory effects. In particular, interleukin-1 alpha (IL-1α) and the intercellular adhesion molecule 1 (ICAM1) are vasoinhibin gene targets in the bovine endothelial cells. To evaluate the ability of the oligopeptide […] to induce the expression of IL-1α and ICAM1, BUVEC […] cells were seeded on 12 well plates with F12K-10% FBS, grown to 80% confluency, and starved with low serum (0.1% FBS) culture medium for 24 h. […] After 4 hours the RNA was extracted from the cells using Trizol (Invitrogen, Carlsbad, CA) and retrotranscribed using the High Capacity cDNA Reverse Transcription Kit (Applied Biosystems, Foster City, CA). The RT-PCR products were quantified in a Maxima SYBRgreen qPCR (Thermo Fisher Scientific) 10 μl final volume reaction mixture containing the template and 0.25 μM of each primer. The PCR amplification was done in the CFX96 Real Time PCR (BioRad), comprising a 10-minute denaturalization at 95° C., followed by 35 amplification cycles (95° C. for 10 sec, 58° C. for 30 sec, and 72° C. for 30 sec). […] The PCR data was analyzed by the 2^-ΔΔCT method and the threshold of the cycles (CT) was normalized by the constitutive housekeeping gene cyclophilin A (PPIA). […]"}}}
{"substance": "Ac-THGRGFI-NH2 [THGRGFI, Thr His Gly Arg Gly Phe Ile]", "values": [{"measurement": "inhibition of VEGF-induced retinal vasopermeability", "setting": "[1]", "value": "blocks the VEGF increase in retinal vasopermeability"}, {"measurement": "EC50", "setting": "[2]", "value": "~1", "unit": "nM"}, {"measurement": "inhibition of invasion of endothelial cells", "setting": "[3]", "value": "significatively inhibited"}, {"measurement": "fold-change of expression of ICAM1 mRNA versus non-treated control", "setting": "[4]", "value": "~13", "unit": "fold"}]}
